Patent publication US20110218103A1, “Fluoroalkyl-substituted 2-amidobenzimidazoles” (BAYER CROPSCIENCE AG, priority 2010, published 2011)

Assays:
Experiment in all cases: Drought stress test on crop plants, spray application in greenhouse, visual damage rating
Type in all cases: in vivo
[1] = tested on: Triticum aestivum (TRZAS); settings: 25 g/ha, mean of three results
Procedure: Seeds of monocotyledonous and dicotyledonous crop plants were placed in sandy loam in wood-fiber pots, covered with soil and cultivated in a greenhouse under good growth conditions. The test plants were treated at the early leaf stage (BBCH10-BBCH13). To ensure uniform water supply before commencement of stress, the potted plants were supplied with the maximum amount of water immediately beforehand by dam irrigation and, after application, transferred in plastic inserts in order to prevent subsequent, excessively rapid drying. The inventive compounds, formulated in the form of wettable powders (WP), wettable granules (WG), suspension concentrates (SC) or emulsion concentrates (EC), were sprayed onto the green parts of the plants as an aqueous suspension at an equivalent water application rate of 600 l/ha with addition of 0.2% wetting agent (agrotin). Substance application was followed immediately by stress treatment of the plants (cold or drought stress). For cold stress treatment, the plants were kept under the following controlled conditions: Drought stress was induced by gradual drying out under the following conditions: “day”: 14 hours with illumination at 26° C. “night”: 10 hours without illumination at 18° C. The duration of the respective stress phases was guided mainly by the state of the untreated, stressed control plants and thus varies from crop to crop. It was ended (by re-irrigating or transfer to a greenhouse with good growth conditions) as soon as irreversible damage is observed on the untreated, stressed control plants. In the case of dicotyledonous crops, for example oilseed rape and soya, the duration of the drought stress phase was between 3 and 5 days, in the case of monocotyledonous crops, for example wheat, barley or corn, between 6 and 10 days. The duration of the cold stress phase varied between 12 and 14 days. The end of the stress phase was followed by an approx. 5-7-day recovery phase, during which the plants were once again kept under good growth conditions in a greenhouse. In order to rule out any influence of the effects observed by any fungicidal action of the test compounds, it was additionally ensured that the tests proceed without fungal infection and without infection pressure. After the recovery phase had ended, the intensities of damage were rated visually compared to untreated, unstressed controls of the same age (in the case of drought stress) or the same growth stage (in the case of cold stress). The intensity of damage was first assessed as a percentage (100%=plants have died, 0%=like control plants). These values were then used to calculate the efficacy of the test compounds (=percentage reduction in the intensity of damage as a result of substance application) by the following formula: [formula] EF: efficacy (%) DVus: damage value of the untreated, stressed control DVts: damage value of the plants treated with test compound The tables below list mean values in each case from three results of the same test. Effects of selected compounds of the formula (I) under drought stress: TRZAS=Triticum aestivum

Brassica napus (BRSNS) = settings: mean of three results
Procedure: Seeds of monocotyledonous and dicotyledonous crop plants were placed in sandy loam in wood-fiber pots, covered with soil and cultivated in a greenhouse under good growth conditions. The test plants were treated at the early leaf stage (BBCH10-BBCH13). To ensure uniform water supply before commencement of stress, the potted plants were supplied with the maximum amount of water immediately beforehand by dam irrigation and, after application, transferred in plastic inserts in order to prevent subsequent, excessively rapid drying. The inventive compounds, formulated in the form of wettable powders (WP), wettable granules (WG), suspension concentrates (SC) or emulsion concentrates (EC), were sprayed onto the green parts of the plants as an aqueous suspension at an equivalent water application rate of 600 l/ha with addition of 0.2% wetting agent (agrotin). Substance application was followed immediately by stress treatment of the plants (cold or drought stress). For cold stress treatment, the plants were kept under the following controlled conditions: Drought stress was induced by gradual drying out under the following conditions: “day”: 14 hours with illumination at 26° C. “night”: 10 hours without illumination at 18° C. The duration of the respective stress phases was guided mainly by the state of the untreated, stressed control plants and thus varies from crop to crop. It was ended (by re-irrigating or transfer to a greenhouse with good growth conditions) as soon as irreversible damage is observed on the untreated, stressed control plants. In the case of dicotyledonous crops, for example oilseed rape and soya, the duration of the drought stress phase was between 3 and 5 days, in the case of monocotyledonous crops, for example wheat, barley or corn, between 6 and 10 days. The duration of the cold stress phase varied between 12 and 14 days. The end of the stress phase was followed by an approx. 5-7-day recovery phase, during which the plants were once again kept under good growth conditions in a greenhouse. In order to rule out any influence of the effects observed by any fungicidal action of the test compounds, it was additionally ensured that the tests proceed without fungal infection and without infection pressure. After the recovery phase had ended, the intensities of damage were rated visually compared to untreated, unstressed controls of the same age (in the case of drought stress) or the same growth stage (in the case of cold stress). The intensity of damage was first assessed as a percentage (100%=plants have died, 0%=like control plants). These values were then used to calculate the efficacy of the test compounds (=percentage reduction in the intensity of damage as a result of substance application) by the following formula: [formula] EF: efficacy (%) DVus: damage value of the untreated, stressed control DVts: damage value of the plants treated with test compound The tables below list mean values in each case from three results of the same test. Effects of selected compounds of the formula (I) under drought stress: BRSNS=Brassica napus

Zea mays (ZEAMX) = settings: mean of three results
Procedure: Seeds of monocotyledonous and dicotyledonous crop plants were placed in sandy loam in wood-fiber pots, covered with soil and cultivated in a greenhouse under good growth conditions. The test plants were treated at the early leaf stage (BBCH10-BBCH13). To ensure uniform water supply before commencement of stress, the potted plants were supplied with the maximum amount of water immediately beforehand by dam irrigation and, after application, transferred in plastic inserts in order to prevent subsequent, excessively rapid drying. The inventive compounds, formulated in the form of wettable powders (WP), wettable granules (WG), suspension concentrates (SC) or emulsion concentrates (EC), were sprayed onto the green parts of the plants as an aqueous suspension at an equivalent water application rate of 600 l/ha with addition of 0.2% wetting agent (agrotin). Substance application was followed immediately by stress treatment of the plants (cold or drought stress). For cold stress treatment, the plants were kept under the following controlled conditions: Drought stress was induced by gradual drying out under the following conditions: “day”: 14 hours with illumination at 26° C. “night”: 10 hours without illumination at 18° C. The duration of the respective stress phases was guided mainly by the state of the untreated, stressed control plants and thus varies from crop to crop. It was ended (by re-irrigating or transfer to a greenhouse with good growth conditions) as soon as irreversible damage is observed on the untreated, stressed control plants. In the case of dicotyledonous crops, for example oilseed rape and soya, the duration of the drought stress phase was between 3 and 5 days, in the case of monocotyledonous crops, for example wheat, barley or corn, between 6 and 10 days. The duration of the cold stress phase varied between 12 and 14 days. The end of the stress phase was followed by an approx. 5-7-day recovery phase, during which the plants were once again kept under good growth conditions in a greenhouse. In order to rule out any influence of the effects observed by any fungicidal action of the test compounds, it was additionally ensured that the tests proceed without fungal infection and without infection pressure. After the recovery phase had ended, the intensities of damage were rated visually compared to untreated, unstressed controls of the same age (in the case of drought stress) or the same growth stage (in the case of cold stress). The intensity of damage was first assessed as a percentage (100%=plants have died, 0%=like control plants). These values were then used to calculate the efficacy of the test compounds (=percentage reduction in the intensity of damage as a result of substance application) by the following formula: [formula] EF: efficacy (%) DVus: damage value of the untreated, stressed control DVts: damage value of the plants treated with test compound The tables below list mean values in each case from three results of the same test. Effects of selected compounds of the formula (I) under drought stress: ZEAMX=Zea mays

Hordeum vulgare (HORVS) = settings: mean of three results
Procedure: Seeds of monocotyledonous and dicotyledonous crop plants were placed in sandy loam in wood-fiber pots, covered with soil and cultivated in a greenhouse under good growth conditions. The test plants were treated at the early leaf stage (BBCH10-BBCH13). To ensure uniform water supply before commencement of stress, the potted plants were supplied with the maximum amount of water immediately beforehand by dam irrigation and, after application, transferred in plastic inserts in order to prevent subsequent, excessively rapid drying. The inventive compounds, formulated in the form of wettable powders (WP), wettable granules (WG), suspension concentrates (SC) or emulsion concentrates (EC), were sprayed onto the green parts of the plants as an aqueous suspension at an equivalent water application rate of 600 l/ha with addition of 0.2% wetting agent (agrotin). Substance application was followed immediately by stress treatment of the plants (cold or drought stress). For cold stress treatment, the plants were kept under the following controlled conditions: Drought stress was induced by gradual drying out under the following conditions: “day”: 14 hours with illumination at 26° C. “night”: 10 hours without illumination at 18° C. The duration of the respective stress phases was guided mainly by the state of the untreated, stressed control plants and thus varies from crop to crop. It was ended (by re-irrigating or transfer to a greenhouse with good growth conditions) as soon as irreversible damage is observed on the untreated, stressed control plants. In the case of dicotyledonous crops, for example oilseed rape and soya, the duration of the drought stress phase was between 3 and 5 days, in the case of monocotyledonous crops, for example wheat, barley or corn, between 6 and 10 days. The duration of the cold stress phase varied between 12 and 14 days. The end of the stress phase was followed by an approx. 5-7-day recovery phase, during which the plants were once again kept under good growth conditions in a greenhouse. In order to rule out any influence of the effects observed by any fungicidal action of the test compounds, it was additionally ensured that the tests proceed without fungal infection and without infection pressure. After the recovery phase had ended, the intensities of damage were rated visually compared to untreated, unstressed controls of the same age (in the case of drought stress) or the same growth stage (in the case of cold stress). The intensity of damage was first assessed as a percentage (100%=plants have died, 0%=like control plants). These values were then used to calculate the efficacy of the test compounds (=percentage reduction in the intensity of damage as a result of substance application) by the following formula: [formula] EF: efficacy (%) DVus: damage value of the untreated, stressed control DVts: damage value of the plants treated with test compound The tables below list mean values in each case from three results of the same test. Effects of selected compounds of the formula (I) under drought stress: HORVS=Hordeum vulgare

## NC(=O)c1cc(F)cc2[nH]c(C(F)C(F)(F)F)nc12 (centres unmarked) [5-8]
[1]
  EF (TRZAS), efficacy = percentage reduction in the intensity of damage: >5%
Brassica napus (BRSNS); 250 g/ha
  EF (BRSNS), efficacy = percentage reduction in the intensity of damage: >5%

## NC(=O)c1cccc2[nH]c(C(F)(F)OCC3CC3)nc12 [1-84]
Zea mays (ZEAMX); 25 g/ha
  EF (ZEAMX), efficacy = percentage reduction in the intensity of damage: >5%

## NC(=O)c1cccc2[nH]c(C(F)C(F)(F)F)nc12 (centres unmarked) [1-8]
Zea mays (ZEAMX); 25 g/ha
  EF (ZEAMX), efficacy = percentage reduction in the intensity of damage: >5%
Hordeum vulgare (HORVS); 50 g/ha
  EF (HORVS), efficacy = percentage reduction in the intensity of damage: >5%
Brassica napus (BRSNS); 50 g/ha
  EF (BRSNS), efficacy = percentage reduction in the intensity of damage: >5%

## NC(=O)c1cc(Cl)cc2[nH]c(C(F)F)nc12 [2-7]
[1]
  EF (TRZAS), efficacy = percentage reduction in the intensity of damage: >5%
Hordeum vulgare (HORVS); 25 g/ha
  EF (HORVS), efficacy = percentage reduction in the intensity of damage: >5%
Brassica napus (BRSNS); 25 g/ha
  EF (BRSNS), efficacy = percentage reduction in the intensity of damage: >5%

## CCCCn1c(C(F)(F)F)nc2c(C(N)=O)cccc21 [1-69]
[1]
  EF (TRZAS), efficacy = percentage reduction in the intensity of damage: >5%
Brassica napus (BRSNS); 25 g/ha
  EF (BRSNS), efficacy = percentage reduction in the intensity of damage: >5%

## CC(C)NC(=O)c1cccc2[nH]c(C(F)(F)F)nc12 [1-21]
Hordeum vulgare (HORVS); 25 g/ha
  EF (HORVS), efficacy = percentage reduction in the intensity of damage: >5%

## C=CCCOC(F)(F)c1nc2c(C(N)=O)cccc2[nH]1 [1-89]
Zea mays (ZEAMX); 250 g/ha
  EF (ZEAMX), efficacy = percentage reduction in the intensity of damage: >5%
Brassica napus (BRSNS); 250 g/ha
  EF (BRSNS), efficacy = percentage reduction in the intensity of damage: >5%
